Patent US7880007B2, “Bicyclic substituted phenyl piperidine modulators of muscarinic receptors” (Vertex Pharmaceuticals Incorporated, priority 2004, dated 2011)

How the values were obtained:
Type in all cases: cell-based
M1 muscarinic receptor = target: T1, M1 muscarinic receptor (Homo sapiens, UniProt P11229); assay: Functional mobilization of intracellular calcium (FLIPR), M1-CHO cells; conditions: for Emax: 100% efficacy = maximum response obtained with the Carbachol control; for M1 Activity: M1-CHO cells, calcium mobilization (FLIPR)
T1 construct: expressed in transfected cells; host or cells: CHO (M1-CHO)
T1 sequence (P11229 1-460): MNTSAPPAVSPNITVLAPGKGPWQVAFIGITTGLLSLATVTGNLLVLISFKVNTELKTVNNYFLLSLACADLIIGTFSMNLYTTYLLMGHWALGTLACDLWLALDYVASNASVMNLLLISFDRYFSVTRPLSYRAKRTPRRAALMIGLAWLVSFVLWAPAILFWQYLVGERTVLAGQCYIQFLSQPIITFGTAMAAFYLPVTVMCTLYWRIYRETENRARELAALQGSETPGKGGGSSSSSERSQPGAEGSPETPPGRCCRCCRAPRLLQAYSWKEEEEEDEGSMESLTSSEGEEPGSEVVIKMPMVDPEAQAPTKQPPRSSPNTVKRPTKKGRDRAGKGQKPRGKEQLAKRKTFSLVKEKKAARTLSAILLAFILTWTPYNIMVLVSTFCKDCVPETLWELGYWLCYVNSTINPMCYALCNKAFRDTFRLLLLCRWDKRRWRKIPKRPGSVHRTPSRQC
Procedure: (§1) Functional Mobilization of Intracellular Calcium to Determine Muscarinic Receptor Activity:
(§2) CHO cells expressing muscarinic receptors (M1 to M5) are grown as monolayers in tissue culture flasks at 37° C. in a humidified atmosphere containing 5% CO2 and passaged every 3-5 days. The growth media is Dulbecco's modified eagles medium (DMEM, Gibco Cat #12430-054), containing 25 mM Hepes and supplemented with Fetal Bovine Serum (Hyclone, cat #SH30071.03), 0.1 mM of MEM non-essential amino acids (GIBCO, Cat #11140-050), 1 mM MEM Sodium Pyruvate (GIBCO Cat #11360-070) and 100 units/ml of Penicillin G and 100 μg/ml of Streptomycin (GIBCO Cat #15140-122). The recombinant muscarinic receptor cell lines are grown under antibiotic pressure with media containing 25 μg/ml zeocin and 500 μg/ml G418 (M1-CHO), 4 μg/ml puromycin, 50 μg/ml zeocin and 2.5 μg/ml blasticidin (M2 and M4-CHO) or 50 μg/ml zeocin and 4 μg/ml puromycin (M3 and M5-CHO).
(§3) Cells are harvested at 80-90% confluence using Versene (GIBCO Cat #15040-066), collected by centrifugation and seeded 18-24 hrs prior to running the calcium assay at a density of 5,000-10,000 cells/well in […], clear-bottomed 384-well plates (BD Biocoat, poly-D-lysine, Cat #356663). The day of the experiment, the cells are washed with a plate washer (Bioteck Instruments, ELX 405) using bath 1 buffer (140-mM NaCl, 4.5-mM KCl, 2-mM CaCl2, 1-mM MgCl2, 10-mM Hepes-Na, 10-mM Glucose, pH 7.4, with NaOH) containing 1 mM Probenecid. Next, the calcium dye Fluo-3 (25 μl/well of Fluo-3 AM at 4 μM, Molecular Probes F-1241, in Bath 1 buffer containing 1 mM Probenecid) is added to the 25 μl of Bath 1 remaining in each well after the plate wash and the dye is loaded at 37° C. in the tissue culture incubator for 60-90 min. The fluorescent dye is removed using the plate washer with Bath 1 containing 1 mM Probenecid, leaving 25 μl/well of this solution after the wash. Alternatively, cells can be loaded with the calcium indicator from Molecular Devices (Calcium 3 Assay Reagents, Cat #R7181) adding 5 μl of a 5× solution dye in Bath 1 containing 1 mM Probenecid (10 ml per dye flask cat #R7182 to generate a solution 20×) to 20 μl of the same buffer. After loading for 60 min, the experiment can be run without having to remove the dye.
(§4) Compounds are prepared at a 2× fold concentration in a 96-well plate (round bottom, Costar Corning cat #3656), by reconstituting the pre-spotted compounds in bath 1 containing 1 mM probenecid. The final concentration DMSO is 0.5%, and the amount of DMSO is normalized across the assay plate. To determine an agonist action of the compounds on muscarinic receptors, the reconstituted compounds are added (25 μl compound/well) to the cell assay plate (containing 25 μl/well) using the multi-channel robotic system of the FLIPR 3 Instrument (Molecular Devices, Sunnyvale, Calif.). To determine a functional inhibitory action of the compounds on muscarinic receptors, the reconstituted compounds are added (25 μl compound/well) to the assay plate and pre-incubated for 15 min prior to adding 25 μl of Carbachol at 3× the EC80 for each muscarinic subtype. Alternatively, the compounds can be co-applied simultaneously with the agonist. In both assay modes, the fluorescence is recorded for 60 sec (excitation wavelength is […] and emission wavelength 540 nm) using the FLIPR 3 instrument.
(§5) The potency, efficacy and selectivity of the muscarinic compounds were evaluated by screening the compound activity across the whole family (M1 to M5 cells). Compounds were also screened for activity on other proteins such as other GPCRs and ion channels to determine selectivity on M4 receptors.
(§6) Examples of activities and efficacies of the muscarinic compounds of formulae (I, Ia, Ib, and II) on modulating M1, M2, M3 and M4 receptors are shown below in Table 3. […]

M4 muscarinic receptor = target: T2, M4 muscarinic receptor (Homo sapiens, UniProt P08173); assay: Functional mobilization of intracellular calcium (FLIPR), M4-CHO cells; conditions: for Emax: 100% efficacy = maximum response obtained with the Carbachol control; for M4 Activity: M4-CHO cells, calcium mobilization (FLIPR)
T2 construct: expressed in transfected cells; host or cells: CHO (M4-CHO)
T2 sequence (P08173 1-479): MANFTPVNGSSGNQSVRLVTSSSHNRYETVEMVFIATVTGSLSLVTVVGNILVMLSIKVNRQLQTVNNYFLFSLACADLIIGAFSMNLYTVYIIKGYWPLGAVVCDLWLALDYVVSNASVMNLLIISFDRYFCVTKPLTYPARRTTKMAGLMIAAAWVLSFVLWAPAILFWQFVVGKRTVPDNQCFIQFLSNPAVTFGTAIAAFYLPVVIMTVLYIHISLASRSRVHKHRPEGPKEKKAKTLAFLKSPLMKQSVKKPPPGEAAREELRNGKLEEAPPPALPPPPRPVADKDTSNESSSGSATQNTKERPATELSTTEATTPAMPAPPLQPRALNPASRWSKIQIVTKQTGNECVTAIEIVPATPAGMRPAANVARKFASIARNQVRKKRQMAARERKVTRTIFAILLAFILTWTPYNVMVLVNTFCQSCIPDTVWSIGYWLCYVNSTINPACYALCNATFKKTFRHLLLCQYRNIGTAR
Procedure: as §1, §2, §3, §4, §5, §6

M2 muscarinic receptor = target: T3, M2 muscarinic receptor (Homo sapiens, UniProt P08172); assay: Functional mobilization of intracellular calcium (FLIPR), M2-CHO cells; conditions: for Emax: 100% efficacy = maximum response obtained with the Carbachol control; for M2 Activity: M2-CHO cells, calcium mobilization (FLIPR)
T3 construct: expressed in transfected cells; host or cells: CHO (M2-CHO)
T3 sequence (P08172 1-466): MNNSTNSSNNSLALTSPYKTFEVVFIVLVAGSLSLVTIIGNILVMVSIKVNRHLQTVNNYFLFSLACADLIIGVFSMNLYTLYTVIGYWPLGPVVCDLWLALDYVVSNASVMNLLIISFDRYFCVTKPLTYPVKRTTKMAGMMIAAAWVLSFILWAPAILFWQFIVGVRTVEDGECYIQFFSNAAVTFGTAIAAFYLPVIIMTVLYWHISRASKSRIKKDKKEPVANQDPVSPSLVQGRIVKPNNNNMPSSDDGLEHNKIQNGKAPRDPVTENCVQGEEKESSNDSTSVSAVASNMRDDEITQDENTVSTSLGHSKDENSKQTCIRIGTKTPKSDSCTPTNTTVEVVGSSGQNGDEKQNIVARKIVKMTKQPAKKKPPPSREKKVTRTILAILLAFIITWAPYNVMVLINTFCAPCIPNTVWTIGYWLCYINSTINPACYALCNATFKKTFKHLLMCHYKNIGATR
Procedure: as §1, §2, §3, §4, §5, §6

Structure (SMILES)	Emax (M1 muscarinic receptor) [%]	M1 Activity (M1 muscarinic receptor)	Emax (M4 muscarinic receptor) [%]	M4 Activity (M4 muscarinic receptor)	Emax (M2 muscarinic receptor) [%]	M2 Activity (M2 muscarinic receptor)
COc1ccc(C)cc1C1CCN(CC2C[C@H]3CC[C@H]2C3)CC1 (stereo partly drawn) [Compound 107]	25 to 100	+ (activity was measured to be greater than 5.0 μM)	25 to 100	+++ (activity was measured to be less than 1.0 μM)	< 25	+ (activity was measured to be greater than 5.0 μM)
CCCC1CCC(N2CCC(c3cc(F)ccc3OC)CC2)CC1 (stereo not drawn) [Compound 125]	25 to 100	+++ (activity was measured to be less than 1.0 μM)	25 to 100	+++ (activity was measured to be less than 1.0 μM)	25 to 100	++ (activity was measured to be from 1.0 μM to 5.0 μM)
CCOC(=O)N1C2CCC1CC(N1CCC(C#N)(c3ccccc3OC)CC1)C2 (stereo not drawn) [Compound 131]	25 to 100	+++ (activity was measured to be less than 1.0 μM)	25 to 100	+++ (activity was measured to be less than 1.0 μM)	< 25	+ (activity was measured to be greater than 5.0 μM)
COc1ccccc1C1(C#N)CCN(C2CC3CCC2C3)CC1 (stereo not drawn) [Compound 136]	25 to 100	+ (activity was measured to be greater than 5.0 μM)	25 to 100	++ (activity was measured to be from 1.0 μM to 5.0 μM)	< 25	+ (activity was measured to be greater than 5.0 μM)
COc1ccc(Cl)cc1C1CCN(CC2CC3C=CC2C3)CC1 (stereo not drawn) [Compound 141]	25 to 100	++ (activity was measured to be from 1.0 μM to 5.0 μM)	25 to 100	+++ (activity was measured to be less than 1.0 μM)	25 to 100	++ (activity was measured to be from 1.0 μM to 5.0 μM)
CCOC(=O)N1[C@@H]2CC[C@@H]1CC(N1CCC(c3cc(F)ccc3C)CC1)C2 (stereo partly drawn) [Compound 145]	25 to 100	+++ (activity was measured to be less than 1.0 μM)	25 to 100	+++ (activity was measured to be less than 1.0 μM)	25 to 100	+++ (activity was measured to be less than 1.0 μM)
COc1ccc(C2CCN(CC3C[C@H]4CC[C@H]3C4)CC2)c(OC)c1 (stereo partly drawn) [Compound 159]	< 25	+ (activity was measured to be greater than 5.0 μM)	< 25	++ (activity was measured to be from 1.0 μM to 5.0 μM)	< 25	+ (activity was measured to be greater than 5.0 μM)
CCCC1CCC(N2CCC(O)(c3cc(Cl)ccc3OC)CC2)CC1 (stereo not drawn) [Compound 164]	< 25	+ (activity was measured to be greater than 5.0 μM)	25 to 100	++ (activity was measured to be from 1.0 μM to 5.0 μM)	< 25	+ (activity was measured to be greater than 5.0 μM)
COc1ccc(NC(C)=O)cc1C1CCN(CC2C[C@H]3CC[C@H]2C3)CC1 (stereo partly drawn) [Compound 166]	< 25	+ (activity was measured to be greater than 5.0 μM)	< 25	+ (activity was measured to be greater than 5.0 μM)	< 25	+ (activity was measured to be greater than 5.0 μM)
COc1ccccc1C1(C#N)CCN(C[C@H]2C[C@H]3CC[C@H]2C3)CC1 [Compound 172]	25 to 100	+++ (activity was measured to be less than 1.0 μM)	25 to 100	+++ (activity was measured to be less than 1.0 μM)	25 to 100	+++ (activity was measured to be less than 1.0 μM)
COc1ccc(Cl)cc1C1(OC)CCN(C2CCOCC2)CC1 [Compound 201]	< 25	+ (activity was measured to be greater than 5.0 μM)	< 25	+ (activity was measured to be greater than 5.0 μM)	< 25	+ (activity was measured to be greater than 5.0 μM)
COc1ccc(Cl)cc1C1(OC)CCN(C2CCCCC2)CC1 [Compound 203]	25 to 100	+ (activity was measured to be greater than 5.0 μM)	25 to 100	++ (activity was measured to be from 1.0 μM to 5.0 μM)	< 25	+ (activity was measured to be greater than 5.0 μM)
COc1ccccc1C1CCN(CC2CC3CCC2O3)CC1 (stereo not drawn) [Compound 218]	< 25	+ (activity was measured to be greater than 5.0 μM)	25 to 100	++ (activity was measured to be from 1.0 μM to 5.0 μM)	< 25	+ (activity was measured to be greater than 5.0 μM)
